Reference: patent EP0319316A2, “Griseolic acid monoesters, their preparation and use” (SANKYO COMPANY LIMITED, priority 1987, dated 1989)

What was measured:
[1] = tested on: water load-induced elevation of intraocular pressure; assay: Effect on water load-induced elevation of intraocular pressure, water load test (Experiment 2); format: in vivo, male New Zealand white rabbits; details: 2.0% sample solution
Experimental: In the following Experiments 1 to 6, the test animals used were male New Zealand white rabbits, each weighing about 2.5 kg, raised in a room where the room temperature, relative humidity and lighting time were controlled to be 23° C, 60% and from 07:00 to 19:00, respectively. The animals were chosen from those where no abnormalities could be detected in their eyes by observation with the naked eye. They were given water freely but feed was restricted. The compound under test was dissolved in 100 mM of a sodium phosphate buffer solution (pH 7.2) containing a small amount of a 0.1 N aqueous solution of sodium hydroxide. In the case of timolol maleate, a 0.5% w/v eye lotion (Timoptol 0.5%, Santen Pharm. Co.) was used as such. Each rabbit was anesthetized with urethane (1.0 g/kg, i.v.), and the IOP values of both eyes were measured. Immediately thereafter, 50 µℓ of the sample solution was applied to one eye (test eye). To the other eye (control eye), 50 µℓ of the vehicle alone was applied. Ninety minutes after this application, the values of IOP were measured and then the water load test was performed as follows. Sixty ml/kg of tap water was given compulsorily per os to the anesthetized rabbit, and then the values of IOP for both eyes were measured with the passage of time. In this Experiment, the test compound was the compound of Example 19(b), i.e. 9'-(4-acetoxybenzyl) griseolate.

Male F344 rats = assay: Four-day toxicity in the rat (Experiment 8); format: in vivo
Experimental: Animals: Male F344 rats were used, each group consisting of 5 animals.
Drug preparation and administration: the compound of Example 19(b) was dissolved in distilled water and administered subcutaneously to the rats in a volume of 0.4 ml per 100 g of body weight at 09:00 for 4 days. Twenty-four hours after the final dose the rats were anesthetized with diethyl ether and their blood and organs were collected, weighed and used for pathological examination.

## CC(=O)Oc1ccc(COC(=O)C23C=C(C(O)C(=O)O)OC2C(O)C(n2cnc4c(N)ncnc42)O3)cc1 (stereo not shown) [Example 19(b), 9'-(4-Acetoxybenzyl) griseolate]
[1]; 50 µℓ, 90 minutes after application, before water loading, control eye 17.1 ± 1.1
  IOP of test eye: 16.8 ± 1.0 mmHg
[1]; 0.5 hours after water loading (60 ml/kg per os), control eye 28.7 ± 1.8, p < 0.05
  IOP of test eye: 25.6 ± 2.2 mmHg
[1]; 1.0 hours after water loading, control eye 26.3 ± 2.4, p < 0.05
  IOP of test eye: 22.6 ± 2.3 mmHg
[1]; 1.5 hours after water loading, control eye 20.3 ± 1.6, p < 0.05
  IOP of test eye: 17.5 ± 1.2 mmHg
[1]; 2.0 hours after water loading, control eye 17.4 ± 1.5
  IOP of test eye: 17.1 ± 1.1 mmHg
[1]; 2.5 hours after water loading, control eye 17.4 ± 1.9, p < 0.05
  IOP of test eye: 15.6 ± 1.5 mmHg
Male F344 rats; dose 6.25 mg/kg subcutaneously for 4 days
  death rate: 0/5
Male F344 rats; dose 12.5 mg/kg subcutaneously for 4 days
  death rate: 0/5
Male F344 rats; dose 25 mg/kg subcutaneously for 4 days
  death rate: 0/5
Male F344 rats; dose 50 mg/kg subcutaneously for 4 days
  death rate: 5/5
